From ChEMBL document CHEMBL1132313, “32-Indolyl ether derivatives of ascomycin: three-dimensional structures of complexes with FK506-binding protein” (J Med Chem, 1999)

Columns and labels:
[1] = Inhibition of calcineurin phosphatase activity by the compound
[2] = Relative binding affinity of compound for FK-506 binding protein (FKBP)
T-cell = experiment: Compound was evaluated for inhibition of T-cell proliferation induced by PMA-ionomycin.; assay type: functional
[3] = Off-rate of FK-506 binding protein (FKBP) drug complex from their complexes with calcineurin.; assay type: ADME
[4] = Relative binding affinity of compound for FK506 binding protein (FKBP)

| SMILES | IC50 [1] | IC50 [2] | Off-rate [3] | IC50 [4] | T-cell proliferation inhibition (T-cell) |
| --- | --- | --- | --- | --- | --- |
| CC[C@@H]1/C=C(/C)[C@@H](O)[C@H](C)C[C@H](OC)C2O[C@@](O)(C(=O)C(=O)N3CCCC[C@H]3C(=O)O[C@H](/C(C)=C/[C@@H]3CC[C@@H](Oc4ccc5c(ccn5C)c4)[C@H](OC)C3)[C@H](C)[C@@H](O)CC1=O)[C@H](C)C[C@@H]2OC | 79 nM |  |  |  | 5.1 nM |
| C=CC[C@@H]1C=C(C)CC(C)C[C@H](OC)[C@H]2O[C@@](O)(C(=O)C(=O)N3CCCC[C@H]3C(=O)O[C@H](/C(C)=C/[C@@H]3CC[C@@H](O)[C@H](OC)C3)[C@H](C)[C@@H](O)CC1=O)[C@H](C)C[C@@H]2OC (single isomer, unassigned) [TACROLIMUS ANHYDROUS] | 11.1 nM |  | 15.1 min | 0.39 nM | 0.3 nM |

The remaining compounds from weak to strong by IC50 [1], led by results:

| IC50 [1] | IC50 [2] | Off-rate [3] | IC50 [4] | SMILES | T-cell proliferation inhibition (T-cell) |
| --- | --- | --- | --- | --- | --- |
| 2500 nM | 0.7 nM |  |  | CC[C@@H]1/C=C(/C)[C@@H](O)[C@@H](C)C[C@H](OC)[C@H]2O[C@@](O)(C(=O)C(=O)N3CCCC[C@H]3C(=O)O[C@H](/C(C)=C/[C@@H]3CC[C@@H](O)[C@H](OC)C3)[C@H](C)[C@@H](O)CC1=O)[C@H](C)C[C@@H]2OC |  |
| 11.4 nM | 5.06 nM | 254 min |  | CC[C@@H]1/C=C(/C)C[C@H](C)C[C@H](OC)C2O[C@@](O)(C(=O)C(=O)N3CCCC[C@H]3C(=O)O[C@H](/C(C)=C/[C@@H]3CC[C@@H](Oc4ccc5c(ccn5CCO)c4)[C@H](OC)C3)[C@H](C)[C@@H](O)CC1=O)[C@H](C)C[C@@H]2OC | 0.19 nM |
| 8.21 nM | 27 nM |  |  | CC[C@@H]1/C=C(/C)C[C@H](C)C[C@H](OC)C2O[C@@](O)(C(=O)C(=O)N3CCCC[C@H]3C(=O)O[C@H](/C(C)=C/[C@@H]3CC[C@@H](Oc4ccc5c(ccn5CC)c4)[C@H](OC)C3)[C@H](C)[C@@H](O)CC1=O)[C@H](C)C[C@@H]2OC | 0.78 nM |
